# According to US20120156180A1, “COMPOSITIONS AND METHODS FOR THE TREATMENT OF KRABBE AND OTHER NEURODEGENERATIVE DISEASES” (The Board of Trustees of the University of Illinois, priority 2009, published 2012):
# Entries after “also recorded” stand apart in the source; their conditions may differ. Square brackets hold non-standard residues; d marks the D form. Ends that are not written are not given here. pS = N[C@@H](COP(=O)(O)O)C(=O)O
# Key:
# primary cortical neurons = assay: Primary cortical neurons incubated with psychosine and control sphingolipids (neurites, MTT assay); settings: for effect on number of neurites: embryonic primary cortical neurons, psychosine 0.1, 1 and 10 μM
# Procedure: Cell cultures of cortical neurons were prepared as previously described. […] E16 pregnant females were sacrificed, the brains of the litter were collected, and the cortex was isolated. The brain was chopped, treated with 0.25% trypsin and then passed through a fire polished pipette. The cells were then plated in DMEM (Mediatech) supplemented with 10% fetal bovine serum (FBS) and, after 2 hours, the medium was changed to Neurobasal medium supplemented with B27. For cell survival, the MTT assay (Chemicon) was performed as indicated by the supplier. Briefly, 5000 cells/well were plated in a 96 well plate, and the stimuli were administered for 24 hours. At the end of the incubation time, the MTT reagent was added and, after 4 hours, the reaction was stopped and the absorbance was read at 570 nm. […] Psychosine, D-Sphingosine, and C6-Ceramide were purchased from Sigma and resuspended in ethanol to the desired concentration.
# To test the hypothesis that the presence of psychosine was detrimental to the survival of these neurons, the effect of psychosine treatment on embryonic primary cortical neurons was tested. […] The cytotoxicity of psychosine was determined with the MTT assay, which directly measures mitochondrial activity (FIG. 20L).
# fast axonal transport = assay: Vesicle motility assays in isolated axoplasm; type: biochemical, squid Loligo pealii; settings: for effect on both modes of axonal transport: 1 μM and 5 μM psychosine perfused; for effect on both antero and retrograde axonal transport rates: 5 μM perfused into extruded axoplasm
# Procedure: Axoplasm was extruded from giant axons of the squid Loligo pealii (Wood Hole Marine Biological Laboratory) as described previously. Szebenyi et al., Neuron 40:41-52 (2003) and Morfini et al., Nat. Neurosci. 9:907-916 (2006). Sphingolipids were diluted into X/2 buffer (175 mM potassium aspartate, 65 mM taurine, 35 mM betaine, 25 mM glycine, 10 mM HEPES, 6.5 mM MgCl2, 5 mM EGTA, 1.5 mM CaCl2 and 0.5 mM glucose, pH 7.2) supplemented with 2-5 mM ATP and 20 μl was added to perfusion chambers. Preparations were analyzed on a Zeiss Axiomat with a 100×, 1.3 n.a. objective, and DIC optics. […]. Organelle velocities were measured with a Photonics Microscopy C2117 video manipulator (Hamamatsu).
# To test whether psychosine exerts a role in neurodegeneration by affecting axonal transport, an experiment was performed using axoplasms isolated from giant squid axons, an approach used to examine the effects on antero and retrograde transport rates of a variety of molecules. Morfini et al., Neuromolecular Med. 2:89-99 (2002).
# Whether psychosine is a pathogenic effector capable of triggering axonal defects in the Twitcher mouse was assessed. To test psychosine effect on FAT, a model of vesicular transport based on the squid Loligo Pelai was employed. This approach has been extensively characterized to examine the effects of different pathogenic proteins. Morfini et al., Neuromolecular. Med. 2:89-99 (2002). Candidate molecules were perfused in a microchamber containing the axoplasm preparations and the average motility of MBO was measured over a period of time. This model has played a fundamental role in the discovery of kinesin-1S (Brady, Nature 317:73-75 (1985)) and the regulatory mechanisms of FAT (Morfini et al., Neuromolecular. Med. 2:89-99 (2002); Morfini et al., Embo J. 23:2235-2245 (2004); and Ratner et al., J. Neurosci. 18:7717-7726 (1998)) as well as the pathogenic mechanism of various proteins and neurotoxins (Morfini et al., Proc. Natl. Acad. Sci. USA 104:2442-2447 (2007); Morfini et al., Nat. Neurosci. 9:907-916 (2006); and Pigino et al., Proc. Natl. Acad. Sci. USA 106:5907-5912 (2009)). Furthermore, antero and retrograde modes of transport in squid axoplasm are identical to those of intact axons (Lasek and Brady, Nature 316:645-647 (1985)) and all regulatory mechanisms discovered in the squid axoplasm are identical to the mammalian neuron.
# Pure preparations of extruded axoplasm isolated from the squid were perfused with different concentrations of psychosine (or related controls) and the speed of MBO was recorded over time.
# Twitcher-YFPax mice = assay: Flecainide treatment of Twitcher-YFPax mice: twitching and axonopathic figures by YFP confocal microscopy; type: in vivo, mouse
# Text: Bechtold et al., Brain 128:18-28 (2005). […] FIG. 23.
# To examine whether protection of axons accompanied the flecainide-mediated amelioration of twitching, spinal cord tissue was collected at P30, and longitudinal sections of the ventral white matter were observed by confocal microscopy for axonal integrity, using the YFP expression as reporter.
# Spinal cord and sciatic nerves were removed from treated and non-treated mice, providing tissue for regular confocal microscopy. Paraformaldehyde-fixed longitudinal 50-μm thick cryosections of spinal cord were used. Whole mount preparations of sciatic nerves were used for confocal analysis. Nerve samples were thoroughly Z-imaged for YEP excitation on a Zeiss Meta-confocal microscope. The number of fragmented or discontinued axons per area in samples from Twi-YFPax mice (treated and non-treated) were counted and the mean values compared to those from WT-YFPax controls. Plotting these numbers against postnatal days allowed a determination of when axonal damage starts and the extent of the effect of each neuroprotective treatment at any given time. Axonal integrity was determined by visualizing continuous YFP fluorescence along a single axon over several hundreds of microns, while visualization of axonal fragments, varicosities, and/or swellings were considered a sign of axonal damage.
# NCX1 = assay: Immunoblot of NCX1 in spinal cord extracts of flecainide-treated Twitcher mice; type: in vivo, mouse
# Procedure: Tissues were isolated and either frozen for long term storage or directly homogenized in lysis buffer (1 mM PMSF, 2 mM Sodium Orthovanadate, 1 mM NaF, 20 mM Tris HCl pH 7.4, 1% Triton X100, 150 mM NaCl, 5 mM MgCl2, 300 nM Okadaic acid). Samples were then briefly sonicated on ice and spun down at 5000 rpm for 5 min to remove the debris. The amount of protein of the supernatant was then quantified with the Bradford assay (Biorad) and equal amount of proteins were loaded on a 4-12% Bis-Tris gel (Invitrogen). After protein determination, samples were diluted to the same concentration and 10-20 μg of total protein electrophoresed on 4-12% Tris-glycine Nupage (Invitrogen) gels at 80 V in MOPS-SDS running buffer. After at 80 mV the gels were transferred for 2 hour at 120 PVDF on a PVDF membrane (Biorad). The membrane was blocked in 5% milk, 1% BSA, 0.05% Tween 20 in Tris Glycine buffer (blocking solution), then probed with primary antibodies overnight at 4° C. and with the secondary horse radish peroxidase conjugated antibodies for 1 hour at room temperature. […] The membrane was washed for at least one hour after the primary and secondary antibody incubations and developed in the Enhanced Luminescence kit (Thermo Scientific). After exposure, the bands were quantified with the software imageJ and the genes of interest were normalized to the relative loading control.
# [1] = tested on: EAE, spinal cord injury, and hypoxic injury; settings: cited from earlier work; for prevention of axonal loss: EAE, spinal cord injury, and hypoxic injury
# PP1 = PP1 enzyme activity assay in cortical neurons incubated with psychosine; type: cell-based, mouse
# Procedure: Samples were processed for quantitation of PP1 with the Molecular Probes RediPlate™ 96 EnzChek® Serine/Threonine Phosphatase Assay Kit (Molecular Probe), as described by the manufacturer. Samples were homogenized in buffer (50 mM Tris-HCl pH 7.0, containing 0.1 mM CaCl2, 125 μg/ml BSA, 0.05% Tween 20) using a IKA Ultra-Turrax T8 homogenizer. An equal amount of protein was loaded in each well of the 96-well plate and fluorescence was read at an excitation of 370 nm and an emission of 460 nm.
# PKC = settings: cited from earlier work
# [2] = tested on: psychosine-mediated neurotoxicity; assay: Psychosine-mediated neurotoxicity with GSK3β inhibitor L803; settings: no experimental details given
# [3] = calcium-sensitive dye, Invitrogen; cited from earlier work
# [4] = perfusion with control D-Sphingosine
compound,measurement,setting,value
"CCCCCCCCCCCCC/C=C/[C@@H](O)[C@H](CO)NC(=O)CCCCC [C6 ceramide, C6-Ceramide]",effect on number of neurites,primary cortical neurons,comparable
CCCCCCCCCCCCC/C=C/[C@@H](O)[C@@H](N)CO [D-Sphingosine],effect on speed of anterograde or retrograde transport,fast axonal transport; control lipid perfused,did not affect the speed of anterograde or retrograde transport
same,"transport rate, anterograde FAT",fast axonal transport; [4],1.5-2 mm/sec
same,"transport rate, retrograde transport",fast axonal transport; [4],1-1.4 mm/sec
same,effect on number of neurites,primary cortical neurons,did not exert any effect
C[S+]([O-])c1ccc(-c2nc(-c3ccncc3)c(-c3ccc(F)cc3)[nH]2)cc1 (centres unmarked) [SB203580],prevention of GM1-mediated inhibition of anterograde fast axonal transport,fast axonal transport,prevented GM1-mediated inhibition of anterograde fast axonal transport
same,prevention of sphingomyelin inhibition of anterograde fast axonal transport,fast axonal transport,prevented
O=C(NCC1CCCCN1)c1cc(OCC(F)(F)F)ccc1OCC(F)(F)F (centres unmarked) [flecainide],onset of twitching (percentage of mice twitching),"Twitcher-YFPax mice; 30 mg/kg body weight/day from P5 or P9 until P30, at 15, 20, 25 and 30 days of age",delayed onset of twitching
same,protection of axons in the spinal cord,Twitcher-YFPax mice; daily subcutaneous 30 mg/kg/day starting from P2,significantly protected axons in the spinal cord; also recorded: even stronger protective effect
same,reduction of number of structural pathologies (axonopathic figures per area) to motor axons,"Twitcher-YFPax mice; early treatment from P5, 30 mg/kg/day, spinal cord at P30",about 50%
same,frequency of axonopathic figures in the ventral spinal cord,"Twitcher-YFPax mice; late treatment from P9, 30 mg/kg/day, spinal cord at P30",not significantly different from that in vehicle-treated animals
same,NCX1 expression in spinal cord,NCX1; early flecainide treatment (P5),reduced NCX1 expression at early (P20) and late (P30) ages; also recorded: reduced the expression of NCX1
same,NCX1 expression in spinal cord,NCX1; late flecainide treatment (P9),Reduction of NXC1 was not detected; also recorded: no differences in NCX1 expression
same,reduction of axonal degeneration,"[1]; 30 mg/kg/day, models of demyelinating EAE",sufficient to reduce axonal degeneration
same,prevention of axonal loss,[1],successfully prevented major axonal loss
same,"sodium channel firing, sodium influx and axon protection",[1]; models of acute and chronic demyelination,"successful in reducing excessive firing of sodium channels, decreasing sodium influx, and protecting axons"
C=C1[C@@H](O)[C@@H]2O[C@]3(CC[C@H](/C=C/[C@@H](C)[C@@H]4CC(C)=C[C@@]5(O[C@H](C[C@@](C)(O)C(=O)O)CC[C@H]5O)O4)O3)CC[C@H]2O[C@@H]1[C@@H](O)C[C@H](C)[C@H]1O[C@@]2(CCCCO2)CC[C@H]1C [okadaic acid],prevention of psychosine-induced inhibition of fast axonal transport,fast axonal transport; 200 nM okadaic acid co-perfused with 5 μM psychosine,prevented much of the blockage of axonal transport; also recorded: prevented FAT inhibition induced by psychosine
O=C1NC(=O)C(c2ccccc2)(c2ccccc2)N1 [phenytoin],prevention of axonal loss,[1],successfully prevented major axonal loss
"CCCCCCCCCCCCC/C=C/[C@@H](O)[C@@H](N)CO[C@@H]1O[C@H](CO)[C@H](O)[C@H](O)[C@H]1O [psychosine, galactosylsphingosine]",effect on both modes of axonal transport,fast axonal transport,strong inhibition of both modes of axonal transport
same,effect on both modes of axonal transport,fast axonal transport; listed as Psychosine,strongly inhibited both modes of FAT
same,effect on both antero and retrograde axonal transport rates,fast axonal transport,rapid reduction of both antero and retrograde axonal transport rates; also recorded: strong inhibitory effect on both antero and retrograde transport
same,PP1 activity,PP1; acutely purified embryonic cortical neurons incubated with psychosine,PP1 activity was induced; also recorded: dose-dependent increase in PP1 activity
same,PP1 activity,"PP1; cortical neurons, incubation with psychosine for 1 hour",PP1 activity increased
same,inhibition of kinases,PKC,known to inhibit kinases such as PKC
same,effect on number of neurites,primary cortical neurons,decrease in the number of neurites
same,"cytotoxicity, MTT assay","primary cortical neurons; primary cortical neurons, 1 μM, 24 hours",toxic even at low concentrations
KEAPPAPPQ[pS]P [L803],effect on psychosine-mediated neurotoxicity,[2],decreased psychosine-mediated neurotoxicity
Sulfatides,effect on both antero and retrograde axonal transport rates,fast axonal transport,inhibited both anterograde and retrograde modes of fast axonal transport
chondroitin sulfate,effect on both antero and retrograde axonal transport rates,fast axonal transport,no detectable effect
fluo-4,Kd,[3],345 nM
sphingomyelin,effect on anterograde mode of fast axonal transport,fast axonal transport; 5 μM perfused,inhibited the anterograde mode of fast axonal transport only
same,effect on retrograde mode of fast axonal transport,fast axonal transport; 5 μM perfused,did not show any effect on the retrograde mode of transport
